Test results: patent US20250154611A1, “SYSTEMS AND METHODS TO DETECT STEM CELL STRESS AND USES THEREOF” (Wayne State University, priority 2014, published 2025)
Like-named read-outs stand apart in the source and are kept apart here.

Tests used:
[1] = system: Rex1-RFP ESCs, Oct4-GFP ESCs; experiment: Plate reader fluorescence of Rex1-RFP and Oct4-GFP reporter ESCs; assay type: cell-based, mouse; conditions: 3 days
Procedure: FIGS. 23A and 23B. Stress induces loss of Rex1-RFP but not Oct4-GFP after days of 200 mM sorbitol. Viable pluripotency reporter Rex1-RFP ESCs (FIG. 23A) or Oct4-GFP ESCs (FIG. 23B) were cultured in […] plates to 30% confluence. Cells were then treated with 200 mM of sorbitol as an osmotic stress for 3 days. Fluorescence was determined from live ESCs using a plate reader from 200 mM sorbitol treated cells was normalized with the non-sorbitol treated control cells. Four independent experiments were carried out and plotted here.
FIG. 24. Viable Rex1 promoter reporter responds with stress treatment in a dose-dependent manner in flow cytometry assay. mESCs expressing Rex1 promoter reporter were cultured in 12-well plates till 30% confluent. Cells were then treated with 200-300 mM of sorbitol in 25 mM increments for 3 days. After trypsinization cell suspensions were assayed by flow cytometry.
mESC culture and stimulation. […] Osmolality of ESC media with and without added 200 mM sorbitol was determined as in Example 2.
Fluorescence determination by plate reader of pluripotency reporters. mESCs that stably express Oct4-copGFP and/or Rex1-mApple promoter reporters were plated on 96-well plates at a starting confluence of 5%. Four identical plates were made for the time course study. Cells were grown for 24 hr in incubator till 10% confluence was reached; an addition of stimuli was designated time zero. The cells were stressed for a time period selected from 1, 2, or 3 days. At each time point, the medium was removed and the cells were rinsed with D-PBS. At 50 μl/well, ESCs were measured for fluorescence using the Synergy H1 microplate reader (BioTek, Winooski, VT). The excitation and detection wavelengths for Oct4-copGFP were 485 nm and 528 nm, respectively. The excitation and detection wavelengths for Rex1-mApple were 568 nm and 611 nm, respectively. After live-cell reading, the cells were lysed with 50 μL of lysis buffer (1% NP-40, 0.5% TX-100, 100 mM NaCl, 2 mM EDTA, 50 mM Tris-HCl, and pH 7.5) and measured for fluorescence with the same parameters above. After fluorescence determination, the cell lysates were further measured for total protein concentrations by adding 100 μl of Pierce BCA protein assay reagent (Thermo Scientific Inc.) following the manufacturer's instructions. Finally, the fluorescence readings from either live-cells or lysates were normalized to total protein concentration readings, in which higher readings represent higher pluripotency of the cells.

AKT = target: T1, AKT (Mus musculus, UniProt P31750); experiment: phospho-AKT western blot in mESCs under 200 mM sorbitol; assay type: cell-based; conditions: 200 mM; persisted through 1 hr
T1 construct: endogenous in cells; host or cells: mESC-D3 (ATCC)
Procedure: FIG. 14. […] Blots are representative of triplicate experiments. Phospho-proteins and their loading controls are grouped between black lines.
FIG. 15. […] Blots are representative of triplicate experiments.
Hyperosmotic activation of signaling enzymes. […] Zhong, 2010; Xie, 2011. […] To determine the kinetics of activation of these five kinases in the described system, mESCs were treated with 200 mM sorbitol for 1 hr. Expression levels of the activated (i.e., phosphorylated) enzymes were assayed by western blot analysis (FIG. 14), including phospho-p38MAPK, phospho-JNK, phospho-MEK1/2, and phospho-AKT (the downstream effector of PI3K signaling).
Efficacy of enzyme inhibitors.

T1 sequence (P31750 whole entry): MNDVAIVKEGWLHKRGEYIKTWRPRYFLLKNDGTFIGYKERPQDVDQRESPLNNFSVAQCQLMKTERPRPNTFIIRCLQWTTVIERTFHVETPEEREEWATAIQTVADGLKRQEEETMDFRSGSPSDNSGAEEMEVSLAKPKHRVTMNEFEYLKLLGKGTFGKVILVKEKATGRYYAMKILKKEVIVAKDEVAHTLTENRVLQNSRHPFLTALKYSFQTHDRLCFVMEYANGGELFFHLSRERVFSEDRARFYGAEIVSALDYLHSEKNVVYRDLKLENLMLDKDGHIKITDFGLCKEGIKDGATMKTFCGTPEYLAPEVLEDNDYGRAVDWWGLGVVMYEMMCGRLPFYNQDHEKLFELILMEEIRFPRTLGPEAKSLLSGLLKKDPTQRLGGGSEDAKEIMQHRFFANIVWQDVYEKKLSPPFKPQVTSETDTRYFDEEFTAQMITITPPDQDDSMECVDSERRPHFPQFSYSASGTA

OC[C@@H](O)[C@@H](O)[C@H](O)[C@@H](O)CO [sorbitol]
Rex1-RFP fluorescence ([1]; 200 mM, LIF present): significant loss
decrease in Rex1-RFP activity ([1]; 200 mM, LIF present): 20%
Oct4-GFP fluorescence ([1]; 200 mM, vs non-sorbitol control): not significantly different
Rex1-RFP fluorescence ([1]; all doses 200-300 mM in 25 mM increments): significant decrease
time of increased AKT activation (AKT): 20 to 30 min
lethality in mESCs (mESCs; 200 mM): nonlethal
lethality in mESCs (mESCs; 400 mM): lethal
